According to ChEMBL document CHEMBL5550132, “Structure-activity relationship in NOD2 agonistic muramyl dipeptides” (Eur J Med Chem, 2024):

Key:
[1] = biological target: T1, Nuclear factor NF-kappa-B complex (Homo sapiens) (UniProt Q00653+P19838+Q04206); assay: Activation of NF-KappaB in HEK293T cells assessed as fold change; type: cell-based; settings: filed as activator
[2] = biological target: T1, Nuclear factor NF-kappa-B complex (Homo sapiens); assay: Activation of NF-kappaB in HEK-Blue hNOD2 cells assessed as fold change at 1000 nM incubated for 48 hrs by SEAP reporter assay; type: cell-based; settings: filed as activator
[3] = biological target: T1, Nuclear factor NF-kappa-B complex (Homo sapiens); assay: Activation of NF-kappaB in HEK-Blue hNOD2 cells assessed as fold change at 10 nM incubated for 48 hrs by SEAP reporter assay; type: cell-based; settings: filed as activator
[4] = biological target: T1, Nuclear factor NF-kappa-B complex (Homo sapiens); assay: Activation of NF-kappaB in HEK-Blue hNOD2 cells assessed as fold change at 100 nM incubated for 48 hrs by SEAP reporter assay; type: cell-based; settings: filed as activator
[5] = biological target: T1, Nuclear factor NF-kappa-B complex (Homo sapiens); assay: Activation of NF-KappaB (unknown origin) expressed in HEK293T cells assessed as fold change at 1000 ng incubated for 12 hrs by Renilla luciferase assay; type: cell-based; settings: filed as activator
[6] = biological target: T1, Nuclear factor NF-kappa-B complex (Homo sapiens); assay: Activation of NF-KappaB (unknown origin) expressed in HEK293T cells assessed as fold change at 100 ng incubated for 12 hrs by Renilla luciferase assay; type: cell-based; settings: filed as activator
[7] = biological target: T1, Nuclear factor NF-kappa-B complex (Homo sapiens); assay: Activation of NF-KappaB (unknown origin) expressed in HEK293T cells assessed as fold change at 10 ng incubated for 12 hrs by Renilla luciferase assay; type: cell-based; settings: filed as activator
Cavia porcellus [8] = species on record: Cavia porcellus; assay: Induction of delayed type hypersensitivity in ABA-BSA immunized Hartley Guinea pigs assessed as reduction in skin lesions at 100 ug measured for 48 hrs; type: functional; settings: dose 100 µg
Cavia porcellus [9] = species on record: Cavia porcellus; assay: Induction of delayed type hypersensitivity in ABA-BSA immunized Hartley Guinea pigs assessed as reduction in skin lesions at 100 ug measured for 24 hrs; type: functional; settings: dose 100 µg
[10] = biological target: T2, Nucleotide-binding oligomerization domain-containing protein 2 (Homo sapiens, UniProt Q9HC29); assay: Agonist activity at NOD2 (unknown origin)
T2 sequence (Q9HC29 whole entry, the tested form may be a part): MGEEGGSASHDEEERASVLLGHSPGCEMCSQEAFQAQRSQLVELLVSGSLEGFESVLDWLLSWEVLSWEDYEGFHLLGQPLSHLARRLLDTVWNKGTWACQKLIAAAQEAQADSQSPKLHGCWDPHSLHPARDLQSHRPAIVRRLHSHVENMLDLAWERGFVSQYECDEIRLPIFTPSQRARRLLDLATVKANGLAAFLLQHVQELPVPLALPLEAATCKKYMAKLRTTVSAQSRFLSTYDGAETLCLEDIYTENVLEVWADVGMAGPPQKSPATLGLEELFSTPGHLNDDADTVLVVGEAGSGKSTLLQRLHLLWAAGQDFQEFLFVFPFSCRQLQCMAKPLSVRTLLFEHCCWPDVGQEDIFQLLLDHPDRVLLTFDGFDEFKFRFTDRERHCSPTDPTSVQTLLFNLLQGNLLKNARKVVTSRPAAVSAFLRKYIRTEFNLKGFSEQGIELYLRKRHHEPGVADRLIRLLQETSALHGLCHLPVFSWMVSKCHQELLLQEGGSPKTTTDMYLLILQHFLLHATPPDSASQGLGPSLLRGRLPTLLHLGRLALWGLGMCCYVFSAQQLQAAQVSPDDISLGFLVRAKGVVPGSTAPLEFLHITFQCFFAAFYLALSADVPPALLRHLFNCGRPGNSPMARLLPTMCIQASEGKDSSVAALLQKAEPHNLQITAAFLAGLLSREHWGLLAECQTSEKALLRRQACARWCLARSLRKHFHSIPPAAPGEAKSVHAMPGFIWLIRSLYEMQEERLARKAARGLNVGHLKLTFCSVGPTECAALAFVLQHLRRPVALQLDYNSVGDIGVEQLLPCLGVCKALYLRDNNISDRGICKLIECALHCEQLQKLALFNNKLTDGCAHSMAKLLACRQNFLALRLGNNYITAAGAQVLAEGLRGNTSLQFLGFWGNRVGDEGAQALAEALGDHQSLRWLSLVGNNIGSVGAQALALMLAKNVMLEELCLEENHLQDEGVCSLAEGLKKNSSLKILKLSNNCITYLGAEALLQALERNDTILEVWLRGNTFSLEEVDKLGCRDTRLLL

[11] = biological target: T2, Nucleotide-binding oligomerization domain-containing protein 2; assay: Activation of NOD2 in HEK293T cells; type: cell-based; settings: filed as activator

T1 sequence (P19838 whole entry, looked up): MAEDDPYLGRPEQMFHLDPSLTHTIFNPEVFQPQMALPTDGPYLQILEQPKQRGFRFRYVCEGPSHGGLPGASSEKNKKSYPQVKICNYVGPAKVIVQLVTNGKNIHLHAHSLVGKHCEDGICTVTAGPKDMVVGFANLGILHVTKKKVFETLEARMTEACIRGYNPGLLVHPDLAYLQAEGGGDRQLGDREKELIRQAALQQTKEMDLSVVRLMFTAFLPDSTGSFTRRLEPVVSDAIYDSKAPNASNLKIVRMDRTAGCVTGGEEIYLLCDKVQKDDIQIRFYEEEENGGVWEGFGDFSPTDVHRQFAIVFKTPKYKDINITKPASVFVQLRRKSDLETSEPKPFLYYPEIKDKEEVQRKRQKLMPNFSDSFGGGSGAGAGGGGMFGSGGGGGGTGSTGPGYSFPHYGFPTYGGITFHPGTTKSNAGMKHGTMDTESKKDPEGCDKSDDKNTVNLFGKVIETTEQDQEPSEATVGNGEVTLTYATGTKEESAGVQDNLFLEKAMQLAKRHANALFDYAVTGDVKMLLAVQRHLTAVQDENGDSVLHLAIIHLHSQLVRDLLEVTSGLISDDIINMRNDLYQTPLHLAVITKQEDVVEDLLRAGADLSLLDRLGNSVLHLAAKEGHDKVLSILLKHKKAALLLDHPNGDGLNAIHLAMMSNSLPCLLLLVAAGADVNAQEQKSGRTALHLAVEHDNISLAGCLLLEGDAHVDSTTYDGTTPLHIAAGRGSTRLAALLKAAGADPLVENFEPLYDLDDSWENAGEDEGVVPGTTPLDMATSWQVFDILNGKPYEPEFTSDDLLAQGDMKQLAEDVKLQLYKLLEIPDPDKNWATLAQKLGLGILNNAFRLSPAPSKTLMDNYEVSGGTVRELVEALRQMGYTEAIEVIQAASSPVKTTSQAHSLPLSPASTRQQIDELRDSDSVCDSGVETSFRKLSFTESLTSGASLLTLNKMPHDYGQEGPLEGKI
T1 sequence (Q00653 whole entry, looked up): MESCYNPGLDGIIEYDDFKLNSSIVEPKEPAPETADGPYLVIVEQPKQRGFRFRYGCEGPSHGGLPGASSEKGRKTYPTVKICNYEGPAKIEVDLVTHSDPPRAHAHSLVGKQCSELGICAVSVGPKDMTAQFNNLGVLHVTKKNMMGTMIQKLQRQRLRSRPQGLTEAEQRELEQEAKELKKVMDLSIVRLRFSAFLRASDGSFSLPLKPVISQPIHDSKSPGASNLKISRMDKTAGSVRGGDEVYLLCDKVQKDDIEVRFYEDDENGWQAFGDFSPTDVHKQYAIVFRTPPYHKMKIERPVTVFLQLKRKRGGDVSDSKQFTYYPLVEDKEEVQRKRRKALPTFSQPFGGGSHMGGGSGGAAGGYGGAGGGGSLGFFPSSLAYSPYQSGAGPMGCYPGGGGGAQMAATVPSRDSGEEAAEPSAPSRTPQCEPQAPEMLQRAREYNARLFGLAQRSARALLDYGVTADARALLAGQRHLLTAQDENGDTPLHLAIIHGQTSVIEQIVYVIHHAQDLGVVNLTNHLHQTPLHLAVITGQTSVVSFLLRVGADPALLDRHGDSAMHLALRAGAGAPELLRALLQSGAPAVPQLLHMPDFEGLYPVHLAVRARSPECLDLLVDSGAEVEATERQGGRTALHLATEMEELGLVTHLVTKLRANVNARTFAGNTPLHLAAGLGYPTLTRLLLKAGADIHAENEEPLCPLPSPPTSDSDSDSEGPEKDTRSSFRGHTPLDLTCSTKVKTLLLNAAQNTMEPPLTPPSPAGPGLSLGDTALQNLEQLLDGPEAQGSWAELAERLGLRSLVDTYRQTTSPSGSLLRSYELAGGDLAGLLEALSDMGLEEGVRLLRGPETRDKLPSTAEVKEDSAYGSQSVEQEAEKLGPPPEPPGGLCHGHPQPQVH
T1 sequence (Q04206 whole entry, looked up): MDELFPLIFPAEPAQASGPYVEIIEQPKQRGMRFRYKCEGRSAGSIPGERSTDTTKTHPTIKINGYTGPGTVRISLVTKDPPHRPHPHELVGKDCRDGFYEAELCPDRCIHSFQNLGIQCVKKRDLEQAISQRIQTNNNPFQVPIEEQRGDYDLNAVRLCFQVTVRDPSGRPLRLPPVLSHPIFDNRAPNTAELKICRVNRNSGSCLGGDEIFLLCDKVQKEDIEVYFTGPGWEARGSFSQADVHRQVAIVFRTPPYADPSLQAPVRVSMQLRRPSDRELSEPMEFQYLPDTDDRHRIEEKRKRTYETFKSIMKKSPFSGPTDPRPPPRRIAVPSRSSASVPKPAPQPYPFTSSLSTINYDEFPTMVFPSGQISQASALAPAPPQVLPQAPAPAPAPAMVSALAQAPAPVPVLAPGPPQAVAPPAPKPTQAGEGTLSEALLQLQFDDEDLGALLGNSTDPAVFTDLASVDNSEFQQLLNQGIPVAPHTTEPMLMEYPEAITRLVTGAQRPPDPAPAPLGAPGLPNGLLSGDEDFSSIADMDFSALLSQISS

Row | Compound | fold change (FC) [1] | fold change (FC) [2] | fold change (FC) [3] | fold change (FC) [4] | fold change (FC) [5] | fold change (FC) [6] | fold change (FC) [7] | further results
1 | CNCc1cn([C@H]2[C@H](O[C@H](C)C(=O)N[C@@H](C)C(=O)N[C@H](CCC(=O)O)C(N)=O)[C@@H](NC(C)=O)[C@H](O)O[C@@H]2CO)nn1 | – | 1 | 1.1 | 1.05 | – | – | – | –
2 | CC(=O)N[C@@H]1[C@@H](O[C@H](C)C(=O)N[C@@H](C)C(=O)N[C@@H](CCC(=O)O)C(N)=O)[C@H](O)[C@@H](CNC(=O)CCOCCOCCOCCOCCNC(=O)CCCC[C@@H]2SC[C@@H]3NC(=O)N[C@@H]32)O[C@H]1O | 1.2 | – | – | – | – | – | – | –
3 | COc1cccc(-c2cn([C@H]3[C@H](O[C@H](C)C(=O)N[C@@H](C)C(=O)N[C@H](CCC(=O)O)C(N)=O)[C@@H](NC(C)=O)[C@H](O)O[C@@H]3CO)nn2)c1 | – | 1 | 1.1 | 1.05 | – | – | – | –
4 | CC(=O)N[C@@H]1[C@@H](O[C@H](C)C(=O)N[C@@H](C)C(=O)N[C@@H](CCC(=O)O)C(N)=O)[C@H](O)[C@@H](CNC(=O)CCOCCOCCOCCOCCOCCOCCOCCOCCOCCOCCOCCOCCNC(=O)CCCC[C@@H]2SC[C@@H]3NC(=O)N[C@@H]32)O[C@H]1O | 1.05 | – | – | – | – | – | – | –
5 | CC(=O)N[C@@H]1[C@@H](O[C@H](C)C(=O)N[C@@H](C)C(=O)N[C@H](CCC(=O)O)C(N)=O)[C@H](O)[C@@H](CNC(=O)CCSSCCNC(=O)CCCC[C@@H]2SC[C@@H]3NC(=O)N[C@@H]32)O[C@H]1O | 7.05 | – | – | – | – | – | – | –
6 | CC(=O)N[C@@H]1[C@@H](O[C@H](C)C(=O)N[C@@H](C)C(=O)N[C@H](CCC(=O)O)C(N)=O)[C@H](O)[C@@H](CNC(=O)CCOCCOCCOCCOCCOCCOCCOCCOCCOCCOCCOCCOCCNC(=O)CCCC[C@@H]2SC[C@@H]3NC(=O)N[C@@H]32)O[C@H]1O | 3 | – | – | – | – | – | – | –
7 | CC(=O)N[C@@H]1[C@@H](O[C@H](C)C(=O)N[C@@H](C)C(=O)N[C@@H](CCC(=O)O)C(N)=O)[C@H](O)[C@@H](CNC(=O)CCSSCCNC(=O)CCCC[C@@H]2SC[C@@H]3NC(=O)N[C@@H]32)O[C@H]1O | 0.9 | – | – | – | – | – | – | –
8 | CC(=O)N[C@H]1[C@H](OCc2ccccc2)O[C@H](CO)[C@@H](N=[N+]=[N-])[C@@H]1O[C@H](C)C(=O)N[C@@H](C)C(=O)N[C@H](CCC(=O)O)C(N)=O | – | 3.15 | 1.3 | 1.65 | – | – | – | –
9 | COc1ccc(CC(=O)NCc2cn([C@H]3[C@H](O[C@H](C)C(=O)N[C@@H](C)C(=O)N[C@H](CCC(=O)O)C(N)=O)[C@@H](NC(C)=O)[C@H](O)O[C@@H]3CO)nn2)cc1 | – | 1.55 | 1.1 | 1.15 | – | – | – | –
10 | CC(=O)N[C@@H]1[C@@H](O[C@H](C)C(=O)N[C@@H](C)C(=O)N[C@H](CCC(=O)O)C(N)=O)[C@H](n2cc(CNC(=O)Cc3ccc(C(F)(F)F)cc3)nn2)[C@@H](CO)O[C@H]1O | – | 1.35 | 1.15 | 1.1 | – | – | – | –
11 | COc1ccc(CC(=O)NCc2cn([C@H]3[C@H](O[C@H](C)C(=O)N[C@@H](C)C(=O)N[C@H](CCC(=O)O)C(N)=O)[C@@H](NC(C)=O)[C@H](OCc4ccccc4)O[C@@H]3CO)nn2)cc1 | – | 1.2 | 1.1 | 1.05 | – | – | – | –
12 | CCO[C@@H]1O[C@H](CO)[C@@H](O[C@@H]2O[C@H](CO)[C@@H](O[C@@H]3O[C@H](CO)[C@@H](O[C@@H]4O[C@H](CO)[C@@H](O)[C@H](O[C@H](C)C(=O)N[C@@H](C)C(=O)N[C@H](CCC(=O)N[C@@H](CCCCN)C(=O)O)C(N)=O)[C@H]4NC(C)=O)[C@H](O)[C@H]3NC(C)=O)[C@H](O[C@H](C)C(=O)N[C@@H](C)C(=O)N[C@H](CCC(=O)N[C@@H](CCCCN)C(=O)O)C(N)=O)[C@H]2NC(C)=O)[C@H](O)[C@H]1NC(C)=O | – | – | – | – | – | – | – | Activity [11]: 30 mU
13 | CC(=O)N[C@@H]1[C@@H](O[C@H](C)C(=O)N[C@@H](C)C(=O)N[C@H](CCC(=O)O)C(N)=O)[C@H](O)[C@@H](CNC(=O)CCOCCOCCOCCOCCNC(=O)CCCC[C@@H]2SC[C@@H]3NC(=O)N[C@@H]32)O[C@H]1O | 9.45 | – | – | – | – | – | – | –
14 | CC(=O)N[C@@H]1[C@@H](O)[C@H](O[C@@H]2O[C@H](CO)[C@@H](O)[C@H](O[C@H](C)C(=O)N[C@@H](C)C(=O)N[C@H](CCC(=O)O)C(N)=O)[C@H]2NC(C)=O)[C@@H](CO)O[C@H]1O | – | – | – | – | – | – | – | Activity [11]: 900 mU
15 | CC(=O)N[C@H]1[C@H](OCc2ccccc2)O[C@H](CO)[C@@H](N)[C@@H]1O[C@H](C)C(=O)N[C@@H](C)C(=O)N[C@H](CCC(=O)O)C(N)=O | – | 1.35 | 1.1 | 1.2 | – | – | – | –

Continued, in another order:

Row | fold change (FC) [1] | fold change (FC) [2] | fold change (FC) [3] | fold change (FC) [4] | fold change (FC) [5] | fold change (FC) [6] | fold change (FC) [7] | Compound | further results
16 | 1.1 | – | – | – | – | – | – | CC(=O)N[C@@H]1[C@@H](O[C@H](C)C(=O)N[C@@H](C)C(=O)N[C@@H](CCC(=O)O)C(N)=O)[C@H](O)[C@@H](CN)O[C@H]1O | –
17 | – | – | – | – | 3 | 1.1 | 1.5 | CC(=O)N[C@@H]1[C@@H](O[C@H](C)C(=O)N(C)[C@@H](C)C(=O)N[C@H](CCC(=O)O)C(N)=O)[C@H](O)[C@@H](CO)O[C@H]1O | –
18 | – | – | – | – | 5 | 1.15 | 1.8 | CC(=O)N[C@@H]1[C@@H](O[C@H](C)C(=O)N[C@H](C(=O)N[C@H](CCC(=O)O)C(N)=O)[C@@H](C)O)[C@H](O)[C@@H](CO)O[C@H]1O | –
19 | – | – | – | – | 1.5 | 1.3 | 1.4 | CC(=O)N[C@@H]1[C@@H](O[C@H](C)C(=O)N2CCC[C@H]2C(=O)N[C@H](CCC(=O)O)C(N)=O)[C@H](O)[C@@H](CO)O[C@H]1O | –
20 | – | – | – | – | 1.1 | 1.05 | 1 | CC(=O)N[C@@H]1[C@@H](O[C@H](C)C(=O)N[C@@H](C(=O)N[C@H](CCC(=O)O)C(N)=O)C(C)C)[C@H](O)[C@@H](CO)O[C@H]1O | –
21 | – | 6.55 | 1.7 | 4 | – | – | – | CC(=O)N[C@H]1C(O)O[C@H](CO)[C@@H](O)[C@@H]1O[C@H](C)C(=O)N[C@@H](C)C(=O)N[C@H](CCC(=O)O)C(N)=O (stereo partly drawn) [MURAMYL DIPEPTIDE] | Activity (Cavia porcellus [8]): 19 mm; Activity (Cavia porcellus [9]): 21 mm; EC50 [10]: 203 nM
22 | – | – | – | – | 9.8 | 2.8 | 1.3 | CC(=O)N[C@@H]1[C@@H](O[C@H](C)C(=O)NCC(=O)N[C@H](CCC(=O)O)C(N)=O)[C@H](O)[C@@H](CO)O[C@H]1O | –
23 | – | – | – | – | 3.4 | 1.05 | 1.7 | CC(=O)N[C@@H]1[C@@H](O[C@H](C)C(=O)N[C@H](CO)C(=O)N[C@H](CCC(=O)O)C(N)=O)[C@H](O)[C@@H](CO)O[C@H]1O | –
24 | 9.15 | – | – | – | – | – | – | CC(=O)N[C@@H]1[C@@H](O[C@H](C)C(=O)N[C@@H](C)C(=O)N[C@H](CCC(=O)O)C(N)=O)[C@H](O)[C@@H](CN)O[C@H]1O | Activity (Cavia porcellus [8]): 10.9 mm; Activity (Cavia porcellus [9]): 17.3 mm
25 | – | – | – | – | 1.6 | 1 | 1.3 | CC(=O)N[C@@H]1[C@@H](O[C@H](C)C(=O)N[C@H](C)C(=O)N[C@H](CCC(=O)O)C(N)=O)[C@H](O)[C@@H](CO)O[C@H]1O | –
26 | – | – | – | – | 1.05 | 1.3 | 1.1 | CC(=O)N[C@@H]1[C@@H](O[C@H](C)C(=O)N(C)[C@H](C)C(=O)N[C@H](CCC(=O)O)C(N)=O)[C@H](O)[C@@H](CO)O[C@H]1O | –
